This note sets out measurements from ChEMBL document CHEMBL4052759, “Discovery of DS79182026: A potent orally active hepcidin production inhibitor” (Bioorg Med Chem Lett, 2017).

Assay [1] has as its target T1, MAP kinase-activated protein kinase 5 (Homo sapiens) (UniProt Q8IW41).
T1 sequence (whole entry): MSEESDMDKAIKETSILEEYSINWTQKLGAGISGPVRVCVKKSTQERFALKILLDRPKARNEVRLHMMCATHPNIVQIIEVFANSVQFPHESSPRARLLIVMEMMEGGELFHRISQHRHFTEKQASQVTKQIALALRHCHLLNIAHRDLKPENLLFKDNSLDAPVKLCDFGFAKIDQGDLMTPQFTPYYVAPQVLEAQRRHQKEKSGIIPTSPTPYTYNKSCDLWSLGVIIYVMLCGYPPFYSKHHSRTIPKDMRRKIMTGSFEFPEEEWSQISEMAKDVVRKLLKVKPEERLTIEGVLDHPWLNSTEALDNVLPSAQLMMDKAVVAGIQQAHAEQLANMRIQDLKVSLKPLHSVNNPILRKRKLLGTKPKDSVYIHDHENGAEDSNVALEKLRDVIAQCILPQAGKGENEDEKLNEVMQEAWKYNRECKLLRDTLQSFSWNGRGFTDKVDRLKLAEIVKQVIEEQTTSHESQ
Briefly: Inhibition of PRAK (unknown origin) at 0.078 uM relative to control.

Assay [2] addresses Inhibitor of nuclear factor kappa-B kinase subunit epsilon (Homo sapiens) (UniProt Q14164). Briefly: Inhibition of IKBKE (unknown origin) at 0.49 uM relative to control.
In assay [3] the target is Cyclin-dependent kinase 3 (Homo sapiens) (UniProt Q00526). Briefly: Inhibition of CDK3 (unknown origin) at 0.49 uM relative to control.
The target of assay [4] is Cyclin-dependent kinase 9 (Homo sapiens) (UniProt P50750). Briefly: Inhibition of CDK9 (unknown origin) at 0.49 uM relative to control.
For assay [5], the target named is Mitogen-activated protein kinase 12 (Homo sapiens) (UniProt P53778). Briefly: Inhibition of p38-gamma (unknown origin) at 0.49 uM relative to control.
Assay [6] deals with NUAK family SNF1-like kinase 1 (Homo sapiens) (UniProt O60285). Briefly: Inhibition of NuaK1 (unknown origin) at 0.49 uM relative to control.
The target of assay [7] is Serine/threonine-protein kinase 10 (Homo sapiens) (UniProt O94804). Briefly: Inhibition of LOK (unknown origin) at 0.49 uM relative to control.
Assay [8] relates to Hepatocyte growth factor receptor (Homo sapiens), P08581 [M1250T]. Briefly: Inhibition of MET M1250T mutant (unknown origin) at 0.49 uM relative to control.
Assay [9] concerns the target Platelet-derived growth factor receptor beta (Homo sapiens) (UniProt P09619). Briefly: Inhibition of PDGFR beta (unknown origin) at 0.49 uM relative to control.
Assay [10] concerns Platelet-derived growth factor receptor alpha (Homo sapiens), P16234 [D842V]. Briefly: Inhibition of PDGFRA D842V mutant (unknown origin) at 0.49 uM relative to control.
The subject of assay [11] is Proto-oncogene tyrosine-protein kinase receptor Ret (Homo sapiens), P07949 [M918T]. Briefly: Inhibition of RET M918T mutant (unknown origin) at 0.49 uM relative to control.
Assay [12] has as its target Tyrosine-protein kinase Srms (Homo sapiens) (UniProt Q9H3Y6). Briefly: Inhibition of SRM (SRMS) (unknown origin) at 0.49 uM relative to control.
Assay [13] concerns the target Tyrosine-protein kinase Tec (Homo sapiens) (UniProt P42680). Briefly: Inhibition of TEC (unknown origin) at 0.49 uM relative to control.
Assay [14] concerns the target Protein kinase C beta type (Homo sapiens) (UniProt P05771). Briefly: Inhibition of PKC-beta1 (unknown origin) at 0.49 uM relative to control.
For a further assay, the species on record is Homo sapiens. Briefly: Inhibition of PKA (unknown origin) at 0.45 uM relative to control.
Assay [15] has as its target Protein kinase C theta type (Homo sapiens) (UniProt Q04759). Briefly: Inhibition of PKC-theta (unknown origin) at 0.45 uM relative to control.
Assay [16] addresses Ephrin type-A receptor 3 (Homo sapiens) (UniProt P29320). Briefly: Inhibition of EPHA3 (unknown origin) at 0.45 uM relative to control.
Assay [17] has as its target Death-associated protein kinase 1 (Homo sapiens) (UniProt P53355). Briefly: Inhibition of DAPK1 (unknown origin) at 0.45 uM relative to control.
The target of assay [18] is Homeodomain-interacting protein kinase 3 (Homo sapiens) (UniProt Q9H422). Briefly: Inhibition of HIPK3 (unknown origin) at 0.45 uM relative to control.
Assay [19] has as its target Mitogen-activated protein kinase 14 (Homo sapiens) (UniProt Q16539). Briefly: Inhibition of p38a (unknown origin) at 0.45 uM relative to control.
Assay [20] concerns the target Misshapen-like kinase 1 (Homo sapiens) (UniProt Q8N4C8). Briefly: Inhibition of MINK (unknown origin) at 0.45 uM relative to control.
Assay [21] deals with Serine/threonine-protein kinase PAK 3 (Homo sapiens) (UniProt O75914). Briefly: Inhibition of PAK3 (unknown origin) at 0.45 uM relative to control.
Assay [22] deals with Tyrosine-protein kinase FRK (Homo sapiens) (UniProt P42685). Briefly: Inhibition of FRK (unknown origin) at 0.45 uM relative to control.
The target in assay [23] is Tyrosine-protein kinase HCK (Homo sapiens) (UniProt P08631). Briefly: Inhibition of Hck (unknown origin) at 0.45 uM relative to control.
In assay [24] the test system is Mast/stem cell growth factor receptor Kit (Homo sapiens), P10721 [T670I]. Briefly: Inhibition of KIT T670I mutant (unknown origin) at 0.45 uM relative to control.
Assay [25] deals with Serine/threonine-protein kinase pim-1 (Homo sapiens) (UniProt P11309). Briefly: Inhibition of PIM1 (unknown origin) at 0.45 uM relative to control.
The target in assay [26] is Tyrosine-protein kinase receptor UFO (Homo sapiens) (UniProt P30530). Briefly: Inhibition of AXL (unknown origin) at 0.45 uM relative to control.
The next assay relates to MAP4K2 (Homo sapiens). Briefly: Inhibition of GCK (unknown origin) at 0.45 uM relative to control.

The term inhibition denotes the change of the read-out against control, counted positive when it falls.

On to `COC(=O)Nc1noc2cc(-c3c(-c4ccccn4)n[nH]c3C)ccc12`, for which the inhibition in assay [1] is -3%.

Turning to `Cc1[nH]nc(C2CC2)c1-c1ccc2c(NC(=O)C3CC3)noc2c1`, the inhibition is 1.7% in [2]; 3.3% in assay [3]; 2.3% in [4]; -2.3% in [5]; 5.7% in assay [6]; 9.7% in assay [7]. Further, the inhibition in assay [8] was determined as 1.3%; in assay [9], 20%; in assay [10], 31.7%; in assay [11] it was 1%; in assay [12], 2.3%; in assay [13], 3.7%. Also, the inhibition in assay [14] was found to be 5%.

In the case of `Cc1n[nH]c(C)c1-c1ccc2c(NC(=O)c3ccc(N4CCN(C)CC4)cc3)n[nH]c2c1`, the inhibition in the assay filed under Homo sapiens is 3%; in assay [15] it was 3%; in assay [16] it was 5%; in [17], -1.3%; in assay [18], 2.7%; in [19], 1.7%. Also, the inhibition in assay [20] is 83.7%; in [21], 3.7%; in assay [22], 31.3%; in assay [23] it was 30.3%; in [24], -10%; in [25], 4%. Further, the values for the inhibition (in [26]; in the assay on MAP4K2 (Homo sapiens)) were 0.3% and 66%, respectively.
